From patent US11839613B2, “Pyrimidine derivatives as PGE2 receptor modulators” (IDORSIA PHARMACEUTICALS LTD, priority 2017, dated 2023)

Columns and labels:
PTGER2 (EP2) = PTGER2 (EP2) (Homo sapiens (Human), UniProt P43116); experiment: hEP2 b-arrestin assay (PathHunter HEK 293 PTGER2 b-arrestin cells); type: cell-based; conditions: antagonistic activity, beta-arrestin assay; read-out: hEP2 b-arr IC50
Procedure: Plate is pre-incubated 15 minutes at 37° C. Then five microliters of PGE2 (final conc. 5 μM) are transferred into the assay plate. Plate is incubated 120 minutes at 37° C.
(each concentration is measured in duplicate)

EP2 = EP2 (Homo sapiens (Human), UniProt P43116); experiment: hEP2 cAMP assay (SF295 glioblastoma cells, HTRF cAMP); type: cell-based; conditions: antagonistic activity
Procedure, shortened: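 PGE2-driven cAMP accumulation was measured by HTRF in SF295 cells, which express endogenous EP2 only. Cells in assay buffer with 2 mM IBMX were pre-incubated 45 min at RT, then incubated 30 min at RT. Detection used competition between cellular cAMP and d2-cAMP for a cryptate anti-cAMP antibody.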

PTGER4 (EP4) = PTGER4 (EP4) (Homo sapiens (Human), UniProt P35408)
EP4 = EP4 (Homo sapiens (Human), UniProt P35408); experiment: hEP4 cAMP assay (BT549 breast cancer cells, HTRF cAMP); type: cell-based; conditions: antagonistic activity, PGE2 6 nM
Procedure, shortened: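 cAMP accumulation quantified by HTRF competition between cellular cAMP and d2-labeled cAMP for cryptate anti-cAMP antibody. Cells: endogenously EP4-expressing BT549, buffer with 2 mM IBMX; 45 min RT compound preincubation preceded 30 min RT challenge with PGE2 at 6 nM final.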

Chain of EP4 (P35408 whole entry): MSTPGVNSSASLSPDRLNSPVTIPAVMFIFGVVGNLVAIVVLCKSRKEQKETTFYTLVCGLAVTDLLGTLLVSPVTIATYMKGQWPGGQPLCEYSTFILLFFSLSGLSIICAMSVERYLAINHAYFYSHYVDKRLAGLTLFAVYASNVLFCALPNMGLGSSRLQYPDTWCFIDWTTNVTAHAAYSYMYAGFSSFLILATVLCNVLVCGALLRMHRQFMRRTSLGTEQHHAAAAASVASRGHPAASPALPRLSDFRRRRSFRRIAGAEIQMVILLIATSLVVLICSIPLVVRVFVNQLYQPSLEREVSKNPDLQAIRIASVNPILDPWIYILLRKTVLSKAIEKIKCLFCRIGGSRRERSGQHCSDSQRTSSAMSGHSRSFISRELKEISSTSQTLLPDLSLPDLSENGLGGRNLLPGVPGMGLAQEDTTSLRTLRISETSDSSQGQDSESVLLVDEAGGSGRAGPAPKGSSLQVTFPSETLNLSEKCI
Chain of PTGER4 (EP4) (P35408 whole entry): as above
Chain of EP2 (P43116 whole entry): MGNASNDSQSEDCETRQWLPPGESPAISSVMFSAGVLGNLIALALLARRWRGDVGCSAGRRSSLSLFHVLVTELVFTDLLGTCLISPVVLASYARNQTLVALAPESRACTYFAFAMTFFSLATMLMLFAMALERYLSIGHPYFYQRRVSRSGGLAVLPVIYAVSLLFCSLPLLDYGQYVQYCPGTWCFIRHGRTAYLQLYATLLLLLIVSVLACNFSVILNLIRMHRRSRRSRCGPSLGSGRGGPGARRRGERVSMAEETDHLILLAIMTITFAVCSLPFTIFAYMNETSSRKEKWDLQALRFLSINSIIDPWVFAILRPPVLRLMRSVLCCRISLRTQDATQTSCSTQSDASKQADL
Chain of PTGER2 (EP2) (P43116 whole entry): as above

| Compound | IC50 (PTGER2 (EP2)) [nM] | IC50 (EP2) [nM] | IC50 (PTGER4 (EP4)) [nM] | IC50 (EP4) [nM] | IC50 (EP4; BT549 cells) [nM] |
| --- | --- | --- | --- | --- | --- |
| 2-Ethoxy-4-{6-[2-(7-ethynyl-2,3-dihydro-benzo[1,4]dioxin-6-yl)-ethylamino]-pyrimidin-4-yl}-benzoic acid [Example 439] | 17 | 33 | 197 |  | 139 |
| CCOc1cc(-c2cc(NCCc3c(OC)cc4ccccc4c3C)ncn2)sc1C(=O)O [Ex 1] | 6 | 8 | 2 | 1 |  |
| CCOc1cc(-c2cc(NCCc3c(C#N)cc4ccccc4c3C)ncn2)sc1C(=O)O [Ex 2] | 113 | 79 | 3 | 1 |  |
| CCOc1cc(-c2cc(NCCc3cc4c(cc3C#N)OCCO4)ncn2)sc1C(=O)O [Ex 6] | 11 | 37 | 6 | 4 |  |
| CCOc1cc(-c2cc(NCCc3ccc4c(c3)CCS4)ncn2)sc1C(=O)O [Ex 15] | 177 | 28 | 12 | 8 |  |
| C#Cc1c(CCNc2cc(-c3cc(OCC)c(C(=O)O)s3)ncn2)ccc2ccccc12 [Ex 17] | 108 | 171 | 8 | 9 |  |
| CCOc1cc(-c2cc(NCCc3ccc4sccc4c3C)ncn2)sc1C(=O)O [Ex 20] | 27 | 11 | 74 | 12 |  |
| CCOc1cc2ccccc2cc1CCNc1cc(-c2cc(OCC)c(C(=O)O)s2)ncn1 [Ex 23] | 15 | 19 | 3 | 14 |  |
| (4-{6-[2-(7-Ethynyl-2,3-dihydro-benzo[1,4]dioxin-6-yl)-ethylamino]-pyrimidin-4-yl}-2-propyl-phenyl)-acetic acid [Example 440] |  | 25 | 51 |  | 65 |

Now from value to compound, other results behind:

| IC50 (PTGER2 (EP2)) [nM] | IC50 (EP2) [nM] | IC50 (PTGER4 (EP4)) [nM] | IC50 (EP4) [nM] | Compound | IC50 (EP4; BT549 cells) [nM] |
| --- | --- | --- | --- | --- | --- |
| 96 | 98 | 16 | 22 | COc1cc2ccccc2c(F)c1CCNc1cc(-c2ccc(C(=O)O)c(OC3CCC3)c2)ncn1 [Ex 25] |  |
| 19 | 19 | 22 | 16 | CCOc1cc(-c2cc(NCCc3cc4c(cc3OC)OCCO4)ncn2)sc1C(=O)O [Ex 26] |  |
| 75 | 19 | 16 | 17 | CCOc1cc(-c2cc(NCCc3ccc4scc(C#N)c4c3)ncn2)sc1C(=O)O [Ex 27] |  |
| 53 | 52 | 33 | 17 | COc1cc2ccccc2c(F)c1CCNc1cc(-c2ccc(C(=O)O)c(SC)c2)ncn1 [Ex 29] |  |
| 359 | 194 | 23 | 18 | CCOc1cc(-c2cc(NCCc3cc(F)c4c(c3)OCCO4)ncn2)sc1C(=O)O [Ex 35] |  |
| 54 | 43 | 44 | 21 | CCOc1cc(-c2cc(NCCc3c(F)cc4ncccc4c3F)ncn2)sc1C(=O)O [Ex 43] |  |
| 127 | 185 | 5 | 21 | CCOc1cc(-c2cc(NCCc3cc4ccccc4cc3OC(F)F)ncn2)sc1C(=O)O [Ex 45] |  |
| 318 | 158 | 63 | 25 | CSc1cc(-c2cc(NCCc3c(C#N)cc4ccccc4c3C)ncn2)ccc1C(=O)O [Ex 52] |  |
|  | 2490 | 556 | 689 | CCOc1cc(-c2cc(NCCc3cc4ccccc4cc3NC)ncn2)ccc1C(=O)O [Ex 312] |  |
|  | 755 | 798 | 956 | COc1cc2c(cc1CCNc1cc(-c3ccc(C(=O)O)c(SC)c3)ncn1)CCCN2 [Ex 329] |  |
|  | 459 | 15 | 64 | CCOc1cc(-c2cc(NCCc3ccc4ncccc4c3)ncn2)sc1-c1noc(=O)[nH]1 [Example 338, 3-{3-Ethoxy-5-[6-(2-quinolin-6-yl-ethylamino)-pyrimidin-4-y]-thiophen-2-yl}-[1,2,4]oxadiazol-5(4H)-one] |  |
